Assay results published in PMC6753678, “Fueling Open Innovation for Malaria Transmission-Blocking Drugs: Hundreds of Molecules Targeting Early Parasite Mosquito Stages” (Frontiers in Microbiology, 2019).
Read-outs that look alike come from different tables or passages of the source.

What was measured:
[1] = system: 3D7-strain P. falciparum asexual parasites; assay: P. falciparum asexual growth inhibition assay (Pf GIA); assay type: cell-based, Plasmodium falciparum; details: dose response confirmation; read-out: Pf asexual growth inhibition assays IC50
Summary of the method: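 Read-out was lactate dehydrogenase activity measured by absorbance at 650 nm after freezing and thawing, against 50 μM chloroquine and DMSO controls. Before that, asexual 3D7 cultures (0.25% parasitemia, 2% hematocrit) had 72 h dose-response compound exposure at 37°C in 5% CO2/5% O2/90% N2; three independent replicates averaged.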

[2] = system: HepG2 cells; assay: HepG2 cytotoxicity assay; details: for Pb ODA (this manuscript) HepG2 cytoxicity: HepG2 cytotoxicity listed with the Pb ODA data set (this manuscript); for IC50: read-out: HepG2 cytotoxicity assay IC50, dose response confirmation
Summary of the method: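 Here viability after a 48 h compound incubation (37°C, humidified 5% CO2) is measured by fluorescence and expressed as percent inhibition, with doxorubicin at 50 μM and DMSO as the bounding controls.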

[3] = system: P. berghei ookinete development; details: for % inhibition, Replicate A / % inhibition, Replicate B: primary screen at 1 μM
[4] = read-out: Pb ODA (this manuscript) IC50, P. berghei ookinete development assay, this manuscript
[5] = read-out: Pb Ookinete development assay IC50, dose response confirmation
[6] = unified HepG2 value across the three screens
[7] = read-out: Pb ODA IC50, this manuscript
[8] = HepG2 values of the three screens unified

Structure (SMILES)	IC50 [1]	Pb ODA (this manuscript) HepG2 cytoxicity [2]	IC50 [2]	Is compound selective in assay? Pb ODA active? [3]	% inhibition, Replicate A [3]	% inhibition, Replicate B [3]	IC50 [3, 4]	IC50 [3, 5]	Unified cytotox [2, 6]	Is compound selective in assay? Pb ODA active? ([3]; 1: YES, 0: NO)	IC50 [3, 7]	HepG2 cytoxicity (Pb ODA, this manuscript) [2]	Unified cytotox [2, 8]	% inhibition, Replicate A ([3]; 1 µM)	% inhibition, Replicate B ([3]; 1 µM)
CCCCCCCc1c(C)[nH]c2ccccc2c1=O [TCMDC-137425]	222 nM	100.00 µM	100 µM	1 (key: 1: YES; 0: NO)	71.66%	86.67%	390 nM	388 nM							
COc1ccc2c(=O)c(Br)c(C)[nH]c2c1 [TCMDC-137426]	842 nM	100.00 µM	100 µM	1 (key: 1: YES; 0: NO)	81.77%	82.46%	480 nM	483 nM							
Cc1[nH]c2ccccc2c(=O)c1Br [TCMDC-137427]	3390 nM	100.00 µM	100 µM	1 (key: 1: YES; 0: NO)	55.99%	67.98%		1600 nM							
Cc1[nH]c(C)c(-c2ccc(C(F)(F)F)cc2)c(=O)c1Br [TCMDC-137429]	369 nM	100.00 µM	100 µM	1 (key: 1: YES; 0: NO)	133.13%	107.96%	650 nM	648 nM							
CCCCCCCCc1c(C)[nH]c(C)c(C#N)c1=O [TCMDC-137431]	794 nM		34.7 µM		93.99%	59.83%		460 nM	34.67 µM	1 (1: YES)					
CCCCC1=CC2C(=O)C(C(=O)OC)=CN=C2C=C1OCc1ccccc1 (centres unmarked) [TCMDC-137492]	140 nM		100 µM		85.39%	106.84%		3020 nM	100.00 µM	1 (1: YES)	3020 nM				
CCCCOc1cc2ncc(C(=O)OCC)c(O)c2cc1OCCCC [TCMDC-137523]	63 nM		100 µM		74.60%	95.02%		2190 nM	100.00 µM	1 (1: YES)	2190 nM				
Cc1cc(O)c(-c2ccc(Oc3ccc(F)cc3)cc2)c(C)n1 [TCMDC-137535]	1030 nM		0.28 µM		57.60%	38.98%		583 nM		0 (0: NO)	580 nM	0.28 µM	0.28 µM		
Cc1cc(=O)c(-c2ccc(Oc3cccc(C(F)(F)F)c3)cc2)c(C)[nH]1 [TCMDC-137536]	3230 nM	100.00 µM	100 µM	1 (key: 1: YES; 0: NO)			2650 nM	2650 nM						91.76%	80.63%
CCCCCCCCc1c(C)[nH]c(C)c(Cl)c1=O [TCMDC-137538]	102 nM		4.79 µM		94.00%	90.22%		131 nM	4.79 µM	1 (1: YES)	130 nM				
CCN1CCN(CCNc2c3ccccc3nc3ccccc23)CC1.Cl [TCMDC-137545]	606 nM		11.8 µM		68.50%	47.85%		1780 nM		0 (0: NO)	1780 nM	11.75 µM	11.75 µM		
CCN1CCN(CCCNc2c3ccccc3nc3ccccc23)CC1.Cl [TCMDC-137546]	616 nM		9.12 µM		55.87%	53.70%		3040 nM		0 (0: NO)	3050 nM	9.12 µM	9.12 µM		
CC(C)N1CCN(CCCNc2c3ccccc3nc3ccccc23)CC1.Cl [TCMDC-137547]	518 nM		14.5 µM		29.07%	62.42%		3710 nM		0 (0: NO)	3710 nM	14.45 µM	14.45 µM		
CCCN1CCN(CCNc2c3ccccc3nc3ccccc23)CC1 [TCMDC-137549]	965 nM		7.41 µM		61.15%	52.76%		2010 nM		0 (0: NO)	2010 nM	7.41 µM	7.41 µM		
Cl.c1ccc(CN2CCN(CCNc3c4ccccc4nc4ccccc34)CC2)cc1 [TCMDC-137571]	446 nM		24 µM		19.05%	55.37%		2900 nM		0 (0: NO)	2890 nM	23.99 µM	23.99 µM		
CC(C)N1CCN(CCCCNc2c3ccccc3nc3ccccc23)CC1.Cl [TCMDC-137573]	10 nM		5.75 µM		42.86%	78.36%		2890 nM		0 (0: NO)	2890 nM	5.75 µM	5.75 µM		
CCCN1CCN(CCCCNc2c3ccccc3nc3ccccc23)CC1.Cl [TCMDC-137576]	238 nM		5.37 µM		35.45%	63.99%		2320 nM		0 (0: NO)	2330 nM	5.37 µM	5.37 µM		
CCOC(=O)N1CCN(CCCCNc2c3ccc(Cl)cc3nc3ccc(OC)cc23)CC1.Cl [TCMDC-137579]	30 nM	5.50 µM	5.5 µM	0 (key: 1: YES; 0: NO)	26.46%	54.23%	4490 nM	4490 nM							
COc1ccc2nc3cc(Cl)ccc3c(NCCCN3CCNCC3)c2c1.Cl [TCMDC-137580]	56 nM	14.79 µM	14.8 µM	0 (key: 1: YES; 0: NO)	53.44%	35.84%	1680 nM	1680 nM							
